Blank lines part the entries; values can stand above or below the compound they belong to.
Assays:
Type in all cases: in vivo
[1] = system: ventricular fibrillations; assay: ventricular fibrillation, 7-min occlusion and reperfusion of coronary artery in anesthetized rats; details: anesthetized rats i.v.; bonnecor 1,0, IX 2,0, X (printed) 1,0 mg/kg
Procedure: The experiments were conducted in male rats weighing 180-240 g and anesthetized with nembutal (60 mg/kg i.v.) with open chest and artificial respiration. The occlusion of the left coronary artery was performed 1-2 min after experiment beginning with following reperfusion after 7 min. During this period time according to literature data [Krzeminski T., Grzyb J., Kurcok A., Brus R.: Pol.J.Pharmacol., 1992, 44, Suppl., p.169-170] the maximum number of ventricular fibrillations (70-100%) were registered. The ECG in the 2nd standard lead was recorded in “Mingograph-81”. The number of ventricular fibrillations during occlusion and reperfusion periods, the life menacing arrhythmia (fibrillation+paroxysmal ventricular tachycardia) and total number of arrhythmias were calculated. The known antiarrhythmic drug bonnecor was used as the reference agent [Grigorieva E. K., Gorbunova V. V. in: “New antiarrhythmic drug—bonnecor (the pharmacology and clinical usage)”, M., 1993, p.64-67]. The compounds were injected i.v. at the following doses: bonnecor—1,0 mg/kg, compound IX—2,0 mg/kg, compound XX—1,0 mg/kg. The control animals were administered with the equivalent volume of physiological solution (1,0 ml/kg). 4 series of experiments were carried out in 80 rats. The results were assessed according to the method of point scale: the absence of arrhythmia—0 point, extrasystole—1 point, paroxysmal ventricular tachycardia—2 points, ventricular fibrillation—3 points, fibrillation observed during the occlusion of coronary vessel—4 points. For statistical analysis the Fisher's exact probability and Wilconson's methods were used.
[Krzeminski T., Grzyb J., Kurcok A., Brus R.: Pol.J.Pharmacol., 1992, 44, Suppl., p.169-170] have shown that 7 min occlusion with following reperfusion of coronary artery in anesthetized rats produced the ventricular fibrillation (68-100%). Defibrotide and prostacycline decreased the number of fibrillations. We have studied the antifibrillator activity of some derivatives of 2-mercaptbenzimidazole in this model with disturbances of heart rhythm. Bonnecor (1,0 mg/kg) was used as the reference drug. It is well known that this agent produces apronouncedantifibrillatoryactivity [Grigorieva E. K., Gorbunova V. V. in: “New antiarrhythmic drug-bonnecor (the pharmacology and clinical usage)”, M., 1993, p.64-67].

Balb/c mice = assay: open-field test, Balb/c mice (passive type of emotional-stress reaction); parameters: key to Total activity: sum of all locomotor activity counts (crossings + rearings) in 3 min; details: for effect on the behavior (locomotor activity) of Balb/c mice in open-field test, in words: i.p., screening
How it was run: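 Male mice, 20-22 g, dosed i.p. in water 30 min before a 3-min open-field test after 1 min in darkness; peripheral, central, rearing and total activity plus defecations recorded; Student t-test. Anxiolysis read as Balb/c activation, sedation as C57B1/6 inhibition.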

cats = assay: hemodynamics and activity of intact heart in cats under anesthesia; details: cats i.v.
Procedure: The effects of compounds on the hemodynamics and activity of intact heart were studied in cats under anesthesia. The experiments were carried out under conditions of open chest. The phase curve of aortic blood flow was the main index of cardiac activity. The compounds were administered i.v. in physiological solution. The t-Student' test was used to estimate the statistical significance.

C57B1/6 mice = assay: open-field test, C57B1/6 mice (active type of emotional-stress reaction); parameters: key to Total activity: sum of all locomotor activity counts (crossings + rearings) in 3 min; details: for Central activity (crossings) / Peripheral activity (crossings) / Total activity / Vertical activity (rearings): M ± mx
Source text: The main point of this approach consists in comparative analysis of the behavioural effects of tested compounds in two inbred strains of mice Balb/c and C57B1/6 with different hereditary types of emotional-stress reactions (ESR). The anxiolytic effect was estimated as the activation of the locomotor activity of animals with “passive” type of ESR (Balb/c mice). The main index describing the sedative properties of tested drugs was the inhibition of the locomotor activity of mice with “active” type of ESR (C57B1/6 strain). The anxioselectivity was evaluated according to coincidence of doses range which activated or inhibited the behavior of mice of different strains. Earlier this approach has been successfully used for estimation of anxioselective activity of such known drugs as phenazepam [Seredenin S. B. et al., Bull.Exp.Biol.Med., 1979, v.88, N7, p.38; Seredenin S. B. et al., Ann.Inst.Super.Sanita, 1990, v.26, N1, p.81-88], mexidol [Seredenin S. B. et al., Khimiko-Farmatsevt.Zhurnal, 1987, N2, p.134; Vironina T. A., Seredenin S. B., Ann.Inst.Super.Sanita, 1988, v.24, N3, p.461-466] and gidazepam [Seredenin S. B. et al., in: “Gidazepam” Kiev, Naukova Dumka, 1992, p.92; Seredenin S. B., Blednov Yu. A., Phys.Chem.Biol.Med., 1993, v.1, N1, p.53-60].
Male C57B1/6 and Balb/c mice (“Stolbovaya” animal farm), weighing 20-22 g were used. The animals were housed in a separate animal room in groups of ten and maintained on 12 h light-dark cycle (light from 8.00 till 20.00) with free access to standard food and water during two weeks before experiment. Testing was performed between 9.00 and 13.00. Every used compound was administered intraperitoneally in water solutions 30 min before testing (0,1 ml solution per 10 g of weight). The “open-field” apparatus consisted of cylinder closed from one end, illuminated by four 75 W lamps fixed to the walls 100 cm above the floor. The “open-field” apparatus was 100 cm in diameter and white-painted; the floor was marked with 3 black circles and some radial lines divided the floor into 16 peripheral and 8 central segments. 30 min after injection each animal was placed in the same peripheral square on the floor for 3 min of testing after 1 min exposure in the dark chamber. The following behavior variables were recorded: 1) the number of crossings in the peripheral area (peripheral activity); 2) the number of crossings in the central segments (central activity); 3) the number of rearings (vertical activity); 4) the emotionality was measured as the number of defecations during the test. The sum of all types of locomotor activity was marked as total activity. The t-Student test was used for statistical analysis.

outbred male rats = assay: conflict Vogel test (punished licking of water); details: M ± mx
Procedure: The study of anxiolytic activity of chosen compounds was carried out in the experiments with outbred male rats weighing 180-200 g in standard conflict Vogel' procedure [Voronina T. A. et al., in: “Phenazepam”, Naukova Dumka, Kiev, 1982, p.89, 93, 146]. The main aim of the initial step of experiments was the training of rats to develop the feeling of thirst with following experience of water licking from bottle in the experimental chamber. The animals were deprived of water for 24 hours and were placed in the test chamber for 5-min adaptation period during which they had free access to the drinking bottle. After another 24 h deprivation period the rats were placed again in the test chamber and were allowed to drink water for 5 sec. Immediately afterwards drinking attempts were punished by electric shock (0,5 mA). Under this collision of drinking and protective reflexes the extremal situation was developed. In this situation the anxiety of punishment prevented the licking process. The number of shocks received throughout a 5-min experimental session was recorded.

male outbred mice = assay: potentiation of sleep induced by sodium thiopental
Procedure: The possible hypnotic effects of choosen drugs was estimated according to method of potentiation of sleep induced by sodium thiopental. The male outbred mice weighing 20-25 g were injected i.p. with sodium thiopental at dose of 70 mg/kg. Two parameters were estimated: latent time of sleeping and duration of sleep. The used compounds were administered i.p. 30 min prior injection of sodium thiopental.

outbred male mice = assay: rotarod test (myorelaxant activity); details: cut-off 120 sec
Procedure: The myorelaxant activity of choosen compounds were studied in the outbred male mice weighing 22-25 g in rotarod test [Voronina T. A. et al., in: “Phenazepam”, Naukova Dumka, Kiev, 1982, p.145]. The animals were placed on the horizontal rotarod (D=2 cm) calibrated for a fixed speed of 4 rpm. According to the rotarod experimental protocol, normal motor coordination was defined by the ability of the animals to remain on the rotarod for an arbitrarily selected time of 120 sec.

[2] = 0.5 mg/kg i.p. 30 min before thiopental 70 mg/kg i.p.
[3] = 1.0 mg/kg i.p. 30 min before thiopental 70 mg/kg i.p.
[4] = 5.0 mg/kg i.p. 30 min before thiopental 70 mg/kg i.p.
[5] = 10.0 mg/kg i.p. 30 min before thiopental 70 mg/kg i.p.

SMILES: CCOc1ccc2nc(SCCN3CCCC3)[nH]c2c1 [Compound X, 2-[2-(Pyrrolidino)ethylthio]-5-ethoxybenzimidazole]
antifibrillatory effect, in words [1]: trend to decrease the number of ventricular fibrillations | effect on the behavior (locomotor activity) of Balb/c mice in open-field test, in words (Balb/c mice): neither activatory nor inhibitory effects | effect on heart rate, in words (cats; doses of 0,5 mg/kg-2,0 mg/kg): small and short bradycardia

duration of sleep after sodium thiopental (male outbred mice; [2]): 78.4 ± 18.2 min | latent time of sleep after sodium thiopental (male outbred mice; [2]): 2.5 ± 0.2 s | duration of sleep after sodium thiopental (male outbred mice; [3]): 70.5 ± 13.7 min | latent time of sleep after sodium thiopental (male outbred mice; [3]): 2.8 ± 0.2 s | duration of sleep after sodium thiopental (male outbred mice; [4]): 56.8 ± 19.1 min | latent time of sleep after sodium thiopental (male outbred mice; [4]): 2.3 ± 0.2 s | duration of sleep after sodium thiopental (male outbred mice; [5]): 74.7 ± 18.7 min | latent time of sleep after sodium thiopental (male outbred mice; [5]): 2.8 ± 0.3 s
SMILES: Cc1cc2nc(SCCN3CCOCC3)[nH]c2cc1C [XV, 2-[2-(Morpholino)ethylthio]-5,6-dimethylbenzimidazole]
Central activity (crossings) (C57B1/6 mice; 1.0 mg/kg i.p.): 39.0 ± 6.9 | Peripheral activity (crossings) (C57B1/6 mice; 1.0 mg/kg i.p.): 87.8 ± 6.7 | Total activity (C57B1/6 mice; 1.0 mg/kg i.p.): 138.2 ± 16.1 | Vertical activity (rearings) (C57B1/6 mice; 1.0 mg/kg i.p.): 11.4 ± 2.5 | Central activity (crossings) (C57B1/6 mice; 5.0 mg/kg i.p.): 36.4 ± 5.7 | Peripheral activity (crossings) (C57B1/6 mice; 5.0 mg/kg i.p.): 87.8 ± 14.6 | Total activity (C57B1/6 mice; 5.0 mg/kg i.p.): 139.1 ± 22.6 | Vertical activity (rearings) (C57B1/6 mice; 5.0 mg/kg i.p.): 14.9 ± 2.3 | Central activity (crossings) (C57B1/6 mice; 50.0 mg/kg i.p.): 35.0 ± 8.1 | Peripheral activity (crossings) (C57B1/6 mice; 50.0 mg/kg i.p.): 54.1 ± 10.7 | Total activity (C57B1/6 mice; 50.0 mg/kg i.p.): 95.4 ± 20.4 | Vertical activity (rearings) (C57B1/6 mice; 50.0 mg/kg i.p.): 6.3 ± 1.6 | effect on locomotor activity of C57B1/6 mice in open-field test, in words (C57B1/6 mice; i.p., doses that activate Balb/c mice): without any changes in locomotor activity | Number of defecations (Balb/c mice; 0.01 mg/kg i.p., M ± mx): 0.5 ± 0.5 | Peripheral activity (crossings) (Balb/c mice; 0.01 mg/kg i.p., M ± mx): 6.9 ± 1.8 | Total activity (Balb/c mice; 0.01 mg/kg i.p., M ± mx): 6.9 ± 1.8 | Number of defecations (Balb/c mice; 0.1 mg/kg i.p., M ± mx): 1.0 ± 0.7 | Peripheral activity (crossings) (Balb/c mice; 0.1 mg/kg i.p., M ± mx): 11.1 ± 2.1 | Total activity (Balb/c mice; 0.1 mg/kg i.p., M ± mx): 11.2 ± 2.1 | Central activity (crossings) (Balb/c mice; 0.5 mg/kg i.p., M ± mx): 0.5 ± 0.4 | Number of defecations (Balb/c mice; 0.5 mg/kg i.p., M ± mx): 1.6 ± 0.7 | Peripheral activity (crossings) (Balb/c mice; 0.5 mg/kg i.p., M ± mx): 32.1 ± 4.7 | Total activity (Balb/c mice; 0.5 mg/kg i.p., M ± mx): 32.6 ± 5.0 | Central activity (crossings) (Balb/c mice; 1.0 mg/kg i.p., M ± mx): 5.1 ± 4.4 | Number of defecations (Balb/c mice; 1.0 mg/kg i.p., M ± mx): 2.0 ± 0.9 | Peripheral activity (crossings) (Balb/c mice; 1.0 mg/kg i.p., M ± mx): 37.7 ± 5.5 | Total activity (Balb/c mice; 1.0 mg/kg i.p., M ± mx): 42.8 ± 9.9 | Number of defecations (Balb/c mice; 5.0 mg/kg i.p., M ± mx): 3.6 ± 0.9 | Peripheral activity (crossings) (Balb/c mice; 5.0 mg/kg i.p., M ± mx): 39.1 ± 8.6 | Total activity (Balb/c mice; 5.0 mg/kg i.p., M ± mx): 39.1 ± 8.6 | Central activity (crossings) (Balb/c mice; 10.0 mg/kg i.p., M ± mx): 0.6 ± 0.5 | Peripheral activity (crossings) (Balb/c mice; 10.0 mg/kg i.p., M ± mx): 44.9 ± 13.0 | Total activity (Balb/c mice; 10.0 mg/kg i.p., M ± mx): 45.9 ± 13.8 | Vertical activity (rearings) (Balb/c mice; 10.0 mg/kg i.p., M ± mx): 0.4 ± 0.3 — | Number of defecations (Balb/c mice; 75.0 mg/kg i.p., M ± mx): 2.7 ± 1.3 | Peripheral activity (crossings) (Balb/c mice; 75.0 mg/kg i.p., M ± mx): 8.8 ± 2.9 | Total activity (Balb/c mice; 75.0 mg/kg i.p., M ± mx): 8.8 ± 2.9 | Peripheral activity (crossings) (Balb/c mice; 100.0 mg/kg i.p., M ± mx): 6.5 ± 3.1 | Total activity (Balb/c mice; 100.0 mg/kg i.p., M ± mx): 6.5 ± 3.1 | effect on the behavior (locomotor activity) of Balb/c mice in open-field test, in words (Balb/c mice): able to activate the behavior of Balb/c mice | number of punished lickings (shocks received in 5-min session) (outbred male rats; 1.0 mg/kg i.p.): 59.1 ± 16.7 | number of punished lickings (shocks received in 5-min session) (outbred male rats; 5.0 mg/kg i.p.): 35.3 ± 5.5 | number of punished lickings (shocks received in 5-min session) (outbred male rats; 10.0 mg/kg i.p.): 38.0 ± 9.4 | number of punished lickings (shocks received in 5-min session) (outbred male rats; 20.0 mg/kg i.p.): 73.9 ± 24.1 | effect on heart rate, in words (cats; dose of 5 mg/kg): small, but statistically significant bradycardia | time of remaining on the rotarod (outbred male mice; 0.1 mg/kg): 120 + 0 sec | time of remaining on the rotarod (outbred male mice; 1.0 mg/kg): 120 + 0 sec | time of remaining on the rotarod (outbred male mice; 5.0 mg/kg): 120 + 0 sec | time of remaining on the rotarod (outbred male mice; 10.0 mg/kg): 120 + 0 sec | time of remaining on the rotarod (outbred male mice; 20.0 mg/kg): 120 + 0 sec

Source: patent publication US6376666B1 (Nauchno-Issledovatelsky Institut Farmakologii Rossiiskoi …, priority 1994, dated 2002)
